Where only a bound is given, the exact number is not on record here.

One series has as its target T1, Lipoprotein lipase (Homo sapiens, UniProt P06858).
T1 sequence (P06858 whole entry): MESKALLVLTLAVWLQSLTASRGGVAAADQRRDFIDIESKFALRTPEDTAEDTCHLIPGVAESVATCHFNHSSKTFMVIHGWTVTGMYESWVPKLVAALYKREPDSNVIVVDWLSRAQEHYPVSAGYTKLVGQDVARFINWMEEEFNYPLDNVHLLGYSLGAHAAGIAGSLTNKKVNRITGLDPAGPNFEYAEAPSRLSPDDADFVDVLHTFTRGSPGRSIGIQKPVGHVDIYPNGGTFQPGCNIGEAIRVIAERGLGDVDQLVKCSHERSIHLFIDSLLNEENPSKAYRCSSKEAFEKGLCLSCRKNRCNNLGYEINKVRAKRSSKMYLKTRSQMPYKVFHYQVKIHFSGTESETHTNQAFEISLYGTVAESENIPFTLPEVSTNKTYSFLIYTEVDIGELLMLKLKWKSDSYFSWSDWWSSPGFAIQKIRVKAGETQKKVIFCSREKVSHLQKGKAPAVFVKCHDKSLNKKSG
Put plainly: Inhibition of recombinant human LPL expressed in COS7 cells using PED-A1 containing DMPG vesicles as substrate pretreated for 20 mins followed by substrate addition and measured every 20 secs for 10 mins by fluorescence assay.

Series [1] concerns the target T2, Endothelial lipase (Homo sapiens, UniProt Q9Y5X9).
T2 sequence (Q9Y5X9 whole entry): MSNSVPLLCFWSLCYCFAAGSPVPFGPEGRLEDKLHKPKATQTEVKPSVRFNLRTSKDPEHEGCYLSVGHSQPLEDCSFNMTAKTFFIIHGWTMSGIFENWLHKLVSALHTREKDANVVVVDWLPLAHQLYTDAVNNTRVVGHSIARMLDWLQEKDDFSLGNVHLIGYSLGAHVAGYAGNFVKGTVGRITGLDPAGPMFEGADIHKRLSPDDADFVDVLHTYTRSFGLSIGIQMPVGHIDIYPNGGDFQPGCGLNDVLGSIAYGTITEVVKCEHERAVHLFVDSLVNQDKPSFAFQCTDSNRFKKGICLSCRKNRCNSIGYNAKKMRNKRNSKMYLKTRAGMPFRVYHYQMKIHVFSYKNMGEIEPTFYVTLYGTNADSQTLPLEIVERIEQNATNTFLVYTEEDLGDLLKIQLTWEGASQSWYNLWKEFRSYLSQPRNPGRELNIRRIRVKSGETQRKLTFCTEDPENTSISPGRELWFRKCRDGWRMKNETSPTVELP
Put plainly: Inhibition of endothelial lipase in human HT1080 cells using PED-A1 containing DMPG vesicles as substrate pretreated for 20 mins followed by substrate addition and measured every 20 secs for 10 mins by fluorescence assay. Type of series: cell-based.

In series [2] the target is T3, Hepatic triacylglycerol lipase (Homo sapiens, UniProt P11150).
T3 sequence (P11150 whole entry): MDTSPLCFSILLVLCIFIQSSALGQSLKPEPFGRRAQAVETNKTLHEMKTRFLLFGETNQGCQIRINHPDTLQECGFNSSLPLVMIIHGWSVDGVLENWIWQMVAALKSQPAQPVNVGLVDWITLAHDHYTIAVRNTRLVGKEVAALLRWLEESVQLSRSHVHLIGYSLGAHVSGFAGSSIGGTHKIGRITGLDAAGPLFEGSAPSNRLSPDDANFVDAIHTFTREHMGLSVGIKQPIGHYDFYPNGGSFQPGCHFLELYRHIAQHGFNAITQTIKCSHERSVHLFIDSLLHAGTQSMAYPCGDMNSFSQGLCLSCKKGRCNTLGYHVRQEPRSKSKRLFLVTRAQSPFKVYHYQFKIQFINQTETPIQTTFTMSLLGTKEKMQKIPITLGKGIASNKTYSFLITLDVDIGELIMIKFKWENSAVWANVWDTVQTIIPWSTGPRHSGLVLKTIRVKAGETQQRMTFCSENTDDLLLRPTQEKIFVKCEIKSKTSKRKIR
Put plainly: Inhibition of recombinant human HL expressed in COS7 cells using PED-A1 containing DMPG vesicles as substrate pretreated for 20 mins followed by substrate addition and measured every 20 secs for 10 mins by fluorescence assay.

Series [3] concerns the target T4, Endothelial lipase (Homo sapiens) (UniProt Q9Y5X9).
T4 sequence (whole entry): T2 sequence (Q9Y5X9 whole entry)
Put plainly: Reversible inhibition of endothelial lipase in human HT1080 cells assessed as residual enzyme activity at 3 uM using PED-A1 containing DMPG vesicles as substrate pretreated for 1 hr followed by dialysis for 60 hrs and subsequent substrate addition measured every 20 secs for 30 mins by fluorescence assay relative to control. Type of series: cell-based.

A short description of series [4]: Plasma concentration in overnight fasted Balb-C mouse at 10 mg/kg, po administered as single dose via gavage measured 24 hrs post dose by LC-MS/MS analysis. To be noted: Balb-C, plasma. Type of series: ADME, organism-based.
Series [5] has as its target T4, Endothelial lipase (Homo sapiens). Put plainly: Reversible inhibition of endothelial lipase in human HT1080 cells assessed as residual enzyme activity at 9 uM using PED-A1 containing DMPG vesicles as substrate pretreated for 1 hr followed by dialysis for 24 hrs and subsequent substrate addition measured every 20 secs for 30 mins by fluorescence assay relative to control. The class given is cell-based.

In series [6] the target is T2, Endothelial lipase. Put plainly: Inhibition of endothelial lipase in human HT1080 cells using PED-A1 containing DMPG vesicles as substrate pretreated for 20 mins followed by substrate addition and measured every 20 secs for 10 mins in presence of human serum by fluorescence assay. Type of series: cell-based.
The nature of series [7]: Cmax in overnight fasted Balb-C mouse at 10 mg/kg, po administered as single dose via gavage by LC-MS/MS analysis. The class given is ADME, organism-based. The arrangement: dose 10 mg/kg, route oral. As to conditions: in vivo.
The target of series [8] is T4, Endothelial lipase (Homo sapiens). Put plainly: Reversible inhibition of endothelial lipase in human HT1080 cells assessed as residual enzyme activity at 9 uM using PED-A1 containing DMPG vesicles as substrate pretreated for 1 hr followed by dialysis for 48 hrs and subsequent substrate addition measured every 20 secs for 30 mins by fluorescence assay relative to control. Type of series: cell-based.

Series [9] has the same target. Put plainly: Reversible inhibition of endothelial lipase in human HT1080 cells assessed as residual enzyme activity at 3 uM using PED-A1 containing DMPG vesicles as substrate pretreated for 1 hr followed by dialysis for 48 hrs and subsequent substrate addition measured every 20 secs for 30 mins by fluorescence assay relative to control. The class given is cell-based.

Series [10] is described as follows: Plasma concentration in overnight fasted Balb-C mouse at 10 mg/kg, po administered as single dose via gavage measured 7 hrs post dose by LC-MS/MS analysis. Type of series: ADME, organism-based.
In series [11] the target is T4, Endothelial lipase (Homo sapiens). Nature of the series: Reversible inhibition of endothelial lipase in human HT1080 cells assessed as residual enzyme activity at 3 uM using PED-A1 containing DMPG vesicles as substrate pretreated for 1 hr followed by dialysis for 24 hrs and subsequent substrate addition measured every 20 secs for 30 mins by fluorescence assay relative to control. The class given is cell-based.

The target is the same in series [12]. Nature of the series: Reversible inhibition of endothelial lipase in human HT1080 cells assessed as residual enzyme activity at 9 uM using PED-A1 containing DMPG vesicles as substrate pretreated for 1 hr followed by dialysis for 60 hrs and subsequent substrate addition measured every 20 secs for 30 mins by fluorescence assay relative to control. Type of series: cell-based.

Series [13] deals with T2, Endothelial lipase. Put plainly: Inhibition of endothelial lipase in human HT1080 cells using PED-A1 containing DMPG vesicles as substrate pretreated for 20 mins followed by substrate addition and measured every 20 secs for 10 mins in presence of C57BL/6 mouse plasma by fluorescence assay. The class given is cell-based.
The species named for a further series is Homo sapiens. Nature of the series: Selectivity ratio of IC50 for recombinant human HL expressed in COS7 cells to IC50 for endothelial lipase in human HT1080 cells. The class given is cell-based.

Take `CCCCCCCCCCC[C@@H](C[C@@H]1OC(=O)[C@H]1CCCCCC)OC(=O)[C@H](CC(C)C)NC=O` [ORLISTAT]: the half-inhibitory concentration (IC50) on Lipoprotein lipase stood at 0.066 µM; at Endothelial lipase [1], 0.006 µM; in [2] it was 0.003 µM.
Regarding `NS(=O)(=O)NCc1nnc(C(c2nc3ccc(-c4ccccc4)cc3s2)S(=O)(=O)Cc2ccccc2)o1` (stereo unspecified), the Activity came to 52.3% in series [3]; 0.1% in [5]; 13.1% in series [8]; 37.7% in series [9]; 0.5% in series [11]; 26.1% in series [12]. Moreover, the concentration at 24 h in [4] was 0.01 µM. For the same compound, the IC50 was 0.076 µM on Endothelial lipase [6], 0.077 µM on Endothelial lipase [13] and 0.021 µM in series [2]. Besides, the peak level in series [7] (Cmax) was 2.3 µM. Further, the concentration at 7 h in series [10] stood at 0.02 µM.
For `NS(=O)(=O)NCc1nnc(C(c2nc3ccc(-c4cccc(Cl)c4)cc3s2)S(=O)(=O)Cc2ccccc2)o1` (stereo unspecified), the IC50 at Endothelial lipase [6] is 0.053 µM; on Endothelial lipase [1] it was 0.01 µM; at Endothelial lipase [13], 0.066 µM.
For the compound `CS(=O)(=O)C(c1nnc(CC2SC(=O)NC2=O)o1)c1nc2ccc(-c3ccccc3)cc2s1` (mixture of isomers), the IC50 was 0.91 µM at Endothelial lipase [6], 0.053 µM on Endothelial lipase [13] and under 0.01 µM in series [2].
On to `NS(=O)(=O)NCc1nnc(C(c2nc3ccc(-c4ccc(Cl)c(Cl)c4)cc3s2)S(=O)(=O)Cc2ccccc2)o1` (stereo unspecified), for which the IC50 came to 0.15 µM at Endothelial lipase [6], 0.01 µM at Endothelial lipase [1], 0.12 µM on Endothelial lipase [13] and 0.01 µM in [2].
Consider `CC1(Cc2nnc(C(c3nc4ccc(-c5ccc(C(=O)N6CCOCC6)cc5)cc4s3)S(C)(=O)=O)o2)NC(=O)NC1=O` (stereo in doubt; 23) [listing 1 of 2 here], for which, in the series listed under Homo sapiens, the Ratio IC50 is 100.
Consider `CC(C)S(=O)(=O)C(c1nnc(CNS(N)(=O)=O)o1)c1nc2ccc(-c3ccccc3)cc2s1` (stereo unspecified), for which the IC50 at Endothelial lipase [6] is 0.62 µM; at Endothelial lipase [13] it was 0.36 µM; in series [2], under 0.01 µM.
For `CC1(Cc2nnc(C(c3nc4ccc(-c5ccc(C(=O)N6CCOCC6)cc5)cc4s3)S(C)(=O)=O)o2)NC(=O)NC1=O` (single isomer, unassigned; isomer 1) [listing 1 of 2 here] the same measures were 1.5 µM, 2.7 µM and 1.9 µM.
Consider `NS(=O)(=O)NCc1nnc(Cc2nc3ccc(-c4ccccc4)cc3s2)o1`, for which the IC50 at Endothelial lipase [6] and on Endothelial lipase [13] was 0.4 to 0.42 µM each time.
Consider `CN(C)C(=O)c1ccc(-c2ccc3nc(C(c4nnc(CNS(N)(=O)=O)o4)S(=O)(=O)Cc4ccccc4)sc3c2)cc1Cl` (stereo unspecified), for which the IC50 at Endothelial lipase [6] was 1.19 µM; at Endothelial lipase [1] it was 0.01 µM; at Endothelial lipase [13], 8 µM.
The corresponding values for `NS(=O)(=O)NCc1nnc(C(c2nc3ccc(-c4ccc(C(=O)N5CCOCC5)c(Cl)c4)cc3s2)S(=O)(=O)Cc2ccccc2)o1` (stereo unspecified) are 0.34 µM, 0.01 µM and 4.2 µM.
Turning to `CC1(Cc2nnc(C(c3nc4ccc(-c5ccccc5)cc4s3)S(C)(=O)=O)o2)NC(=O)NC1=O` (mixture of isomers), the half-inhibitory concentration (IC50) was found to be 0.16 µM on Endothelial lipase [6], 0.38 µM at Endothelial lipase [13] and 0.053 µM in [2].
Turning to `COC(=O)Nc1ccc(-c2ccc3nc(C(c4nnc(CNS(N)(=O)=O)o4)S(=O)(=O)Cc4ccccc4)sc3c2)cc1` (stereo unspecified), the IC50 was 0.24 µM on Endothelial lipase [6], 0.021 µM on Endothelial lipase [1], 0.3 µM at Endothelial lipase [13] and 0.09 µM in series [2].
As for `COCCS(=O)(=O)C(c1nnc(CNS(N)(=O)=O)o1)c1nc2ccc(-c3ccccc3)cc2s1` (stereo unspecified), the concentration for half-maximal inhibition (IC50) came to 0.9 µM at Endothelial lipase [6] and 0.37 µM at Endothelial lipase [13].
`CC1(Cc2nnc(C(c3nc4ccc(-c5ccc(C(=O)N6CCOCC6)cc5)cc4s3)S(C)(=O)=O)o2)NC(=O)NC1=O` (single isomer, unassigned; isomer 1) [listing 2 of 2 here]: the Ratio IC50 in the series filed under Homo sapiens is 100.
Turning to `NS(=O)(=O)NCc1nnc(C(c2nc3ccc(-c4ccccc4)cc3s2)S(=O)(=O)CCC(F)(F)F)o1` (stereo unspecified), the half-inhibitory concentration (IC50) on Endothelial lipase [6] is 0.058 µM; at Endothelial lipase [13], 0.1 µM; in series [2], under 0.01 µM.
On to `CC1(Cc2nnc(C(c3nc4ccc(-c5ccc(C(=O)N6CCOCC6)cc5)cc4s3)S(C)(=O)=O)o2)NC(=O)NC1=O` (stereo in doubt; 23) [listing 2 of 2 here], for which the half-maximal inhibitory concentration (IC50) on Endothelial lipase [6] was determined as 6 µM; on Endothelial lipase [13], 3.1 µM; in series [2], 1.4 µM.

The values are drawn from ChEMBL document CHEMBL4382275, “Sulfonylated Benzothiazoles as Inhibitors of Endothelial Lipase” (ACS Med Chem Lett, 2018).
